The values that follow come from ChEMBL document CHEMBL1909542, “Synthesis and acrosin inhibitory activity of substituted 4-amino-N-(diaminomethylene) benzenesulfonamide derivatives” (Bioorg Med Chem Lett, 2011).

This experiment has as its target Acrosin (Homo sapiens, UniProt P10323). Briefly: Inhibition of acrosin activity in human spermatozoa using N-alpha-benzoyl-DL-arginine para-nitroanilide-HCI as a substrate after 3 hrs by spectrophotometric analysis.

Sequence of Acrosin (P10323 20-42 limits assumed): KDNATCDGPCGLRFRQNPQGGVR
Sequence of Acrosin (P10323 43-343 limits assumed): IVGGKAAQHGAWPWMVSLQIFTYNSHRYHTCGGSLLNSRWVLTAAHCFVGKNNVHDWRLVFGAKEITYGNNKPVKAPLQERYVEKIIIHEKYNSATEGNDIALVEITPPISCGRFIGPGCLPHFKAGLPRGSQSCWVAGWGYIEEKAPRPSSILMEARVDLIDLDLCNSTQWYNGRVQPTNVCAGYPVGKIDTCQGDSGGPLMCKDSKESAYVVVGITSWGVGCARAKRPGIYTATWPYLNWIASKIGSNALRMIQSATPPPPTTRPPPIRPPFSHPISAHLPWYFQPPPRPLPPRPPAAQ

As a reminder, the IC50 is the point on the concentration scale where inhibition reaches its midpoint. A low value points to greater potency in that assay. Compound `COc1ccc(C(=O)Nc2ccc(S(=O)(=O)N=C(N)N)cc2)cc1` gave an IC50 of 2.21 mM.

Take `Cc1ccc(C(=O)Nc2ccc(S(=O)(=O)N=C(N)N)cc2)cc1`: the half-inhibitory concentration (IC50) is 2.06 mM.

In the case of `NC(N)=NS(=O)(=O)c1ccc(NC(=O)c2ccccc2Cl)cc1`, the 50% inhibitory concentration (IC50) was determined as 6.3 mM.

On to `NC(N)=NS(=O)(=O)c1ccc(NC(=O)c2cccc(Cl)c2)cc1`, for which the IC50 worked out at 7 mM. The IC50 values of the last two compounds are within 1.5-fold of each other.

Compound `NC(N)=NS(=O)(=O)c1ccc(NC(=O)c2ccc(Cl)cc2Cl)cc1` came in with an IC50 of 5.63 mM. This IC50 and that of the compound before are within 1.5-fold of each other.

Take `NC(N)=NS(=O)(=O)c1ccc(NC(=O)c2c(Cl)cccc2Cl)cc1`: the IC50 was found to be 5.96 mM.

Compound `NC(N)=NS(=O)(=O)c1ccc(NC(=O)c2ccc(Cl)c(Cl)c2)cc1` yielded a concentration for half-maximal inhibition (IC50) of 3.8 mM. This IC50 is about 1.6-fold lower than that of the compound before.

For `NC(N)=NS(=O)(=O)c1ccc(NC(=O)c2ccccc2Br)cc1`, the half-maximal inhibitory concentration (IC50) is 7.63 mM.

For `NC(N)=NS(=O)(=O)c1ccc(NC(=O)c2ccc(F)cc2)cc1`, the IC50 was found to be 7.11 mM.

Compound `NC(N)=NS(=O)(=O)c1ccc(NC(=O)c2c(F)cccc2F)cc1` had an IC50 of 7.18 mM.

`NC(N)=NS(=O)(=O)c1ccc(NC(=O)c2ccc(CCl)cc2)cc1`: the IC50 is 3.84 mM.

In turn, `Cc1cc(C)c(C(=O)Nc2ccc(S(=O)(=O)N=C(N)N)cc2)c(C)c1` registered an IC50 of 2.45 mM.

For `NC(N)=NS(=O)(=O)c1ccc(NC(=O)c2cccc(C(F)(F)F)c2)cc1`, the half-maximal inhibitory concentration (IC50) turned out to be 7.05 mM.

For `NC(N)=NS(=O)(=O)c1ccc(NC(=O)c2cc([N+](=O)[O-])cc([N+](=O)[O-])c2)cc1`, the IC50 turned out to be 2.5 mM.

The compound `CCc1ccc(C(=O)Nc2ccc(S(=O)(=O)N=C(N)N)cc2)cc1` registered an IC50 of 0.21 mM.

The compound `CCOc1ccc(C(=O)Nc2ccc(S(=O)(=O)N=C(N)N)cc2)cc1` registered an IC50 of 0.13 mM.

Regarding `CCC(=O)Nc1ccc(S(=O)(=O)N=C(N)N)cc1`, the IC50 was 9 mM.

`CCCC(=O)Nc1ccc(S(=O)(=O)N=C(N)N)cc1` displayed an IC50 of 9.58 mM.

Take `CCCCC(=O)Nc1ccc(S(=O)(=O)N=C(N)N)cc1`: the IC50 came to 1.58 mM.

Turning to `NC(N)=NS(=O)(=O)c1ccc(NC(=O)CN2CCCCC2)cc1`, the IC50 was 7.41 mM.

In turn, `CC1CCCCN1CC(=O)Nc1ccc(S(=O)(=O)N=C(N)N)cc1` (stereo unspecified) had an IC50 of 9.9 mM.

The compound `CC1CCN(CC(=O)Nc2ccc(S(=O)(=O)N=C(N)N)cc2)CC1` displayed an IC50 of 4.98 mM.

Regarding `COC(=O)C1CCN(CC(=O)Nc2ccc(S(=O)(=O)N=C(N)N)cc2)CC1`, the IC50 is 9.3 mM.

In turn, `CCOC(=O)C1CCN(CC(=O)Nc2ccc(S(=O)(=O)N=C(N)N)cc2)CC1` showed an IC50 of 2.99 mM.

`CCCOC(=O)C1CCN(CC(=O)Nc2ccc(S(=O)(=O)N=C(N)N)cc2)CC1` had an IC50 of 3.31 mM.

On to `CC(C)OC(=O)C1CCN(CC(=O)Nc2ccc(S(=O)(=O)N=C(N)N)cc2)CC1`, for which the half-inhibitory concentration (IC50) came out at 2.35 mM.

In turn, `CCCCOC(=O)C1CCN(CC(=O)Nc2ccc(S(=O)(=O)N=C(N)N)cc2)CC1` had an IC50 of 9.5 mM.

Compound `CC(C)CCOC(=O)C1CCN(CC(=O)Nc2ccc(S(=O)(=O)N=C(N)N)cc2)CC1` displayed an IC50 of 2.51 mM.

`NC(N)=NS(=O)(=O)c1ccc(NC(=O)COc2ccccc2)cc1` returned an IC50 of 2.3 mM.

With `Cc1ccccc1OCC(=O)Nc1ccc(S(=O)(=O)N=C(N)N)cc1`, the IC50 stood at 9.3 mM.

`Cc1cccc(OCC(=O)Nc2ccc(S(=O)(=O)N=C(N)N)cc2)c1` registered an IC50 of 8.92 mM.

Compound `Cc1ccc(OCC(=O)Nc2ccc(S(=O)(=O)N=C(N)N)cc2)cc1` yielded a half-inhibitory concentration (IC50) of 8.98 mM.

The compound `NC(N)=NS(=O)(=O)c1ccc(NC(=O)COc2ccc(Cl)cc2)cc1` came in with an IC50 of 9.35 mM.

Turning to `COc1ccc(OCC(=O)Nc2ccc(S(=O)(=O)N=C(N)N)cc2)cc1`, the IC50 amounted to 9.84 mM.

`NC(N)=NS(=O)(=O)c1ccc(NC(=O)COc2ccc([N+](=O)[O-])cc2)cc1` displayed an IC50 of 4.2 mM.

In the case of `COC(=O)c1ccc(OC(=O)c2ccc(NC(=N)N)cc2)cc1.CS(=O)(=O)O`, the IC50 amounted to 0.027 mM.
